Seven compounds from patent US6455469B1, “Herbicidal composition” (Ishihara Sangyo Kaisha, Ltd., priority 2000, dated 2002) can be followed below.

Common to all, as to type: in vivo
In series [1] the test system is four grass weeds (SORHA, SETVI, ECHCG, DIGSA). The series is described as follows: Greenhouse pre-emergence test, mean control of four grass weeds. The note with it: soil surface spray 1 day after planting, visual rating 0-100% after two weeks, grass herbicides 1000 g/ha, atrazine 1680 g/ha, isoxaflutole 78 g/ha, B-128 125 g/ha. The text has this:
(§1) Seeds of weed species were sown in 10 cm square plastic pots containing a 3:2:1 sand:soil:peat mixture. Species included six broadleaf weeds, CASOB (Cassia obtusifolia, L., sicklepod), IPOHE (Ipomoea hederacea, L., ivyleaf morningglory), ABUTH (Abutilon theophrastii, velvetleaf, AMARE (Amaranthus retroflexus, redroot pigweed), CHEAL (Chenopodium album, lambsquarters) and XANST (Xanthium strumarium, cocklebur ), four grass weeds, SORHA (Sorghum halepense, johnsongrass), SETVI (Setaria viridis, green foxtail), ECHCG (Echinochloa crus-galli, bamyardgrass), and DIGSA (Digitria sanguinalis, large crabgrass) and four crops species, Zea mays, Glycine max L. Triticum aestivum, and Oryza sativa. Herbicide treatments were applied in water carrier via automated track sprayer to the soil surface of these pots 1 day after planting. The sprayer was calibrated to deliver the material in a volume of 187 l/ha through a TJ8001E spray nozzle at a pressure of 40 PSI.
(§2) Treatments included the compounds of formula I numbers 1, 15, 16 and 23, the commercial grass herbicides metolachlor S (Dual II Magnum®), acetochlor (Harness®), alachlor (Lasso MT®) alone and in combination with three broadleaf herbicides, atrazine, isoxaflutole and compound B-128 (Table 2). All grass herbicides (compounds 1, 15, 16, 23, metolachlor S, acetochlor and alachor were applied at a rate of 1000 g/ha. The broadleaf herbicides were applied at 1680 g/ha for atrazine, 78 g/ha for isoxaflutole and 125 g/ha for B-128.
(§3) After treatment, pots were returned to a greenhouse where they were watered and held in good growth conditions for two weeks. At the end of two weeks, herbicidal efficacy was evaluated visually using a rating system from 0-100%, where 0=no inhibition of growth, and 100=complete death of all plants in the testing unit. Results are reported in table 3 as the mean control of all six broadleaf weeds, mean control of all four grass weeds and the phytotoxicity to maize.

Series [2] concerns six broadleaf weeds (CASOB, IPOHE, ABUTH, AMARE, CHEAL, XANST). Put plainly: Greenhouse pre-emergence test, mean control of six broadleaf weeds. The note with it: soil surface spray 1 day after planting, visual rating 0-100% after two weeks, grass herbicides 1000 g/ha, atrazine 1680 g/ha, isoxaflutole 78 g/ha, B-128 125 g/ha.
Source text: as §1, §2, §3

The subject of series [3] is Setaria viridis. Put plainly: Field trials, control of Setaria viridis. The note with it: grass herbicides 1000 g/ha, atrazine 1680 g/ha, B-128 150 g/ha. From the text: (§4) Two field trials were established on contrasting soil types. Trial 1 was on a soil with low organic matter and high sand content, and trial 2 was on a clay loam soil with moderate amounts of organic matter. In both cases, the soil was overseeded (followed by light tillage) with seeds of Amaranthus retroflexus, Abutilon theophrasti, Chenopodium album, Ipomoea hederacea, and Setaria viridis to ensure consistent weed populations. Maize was planted with 30 inches between rows. Immediately after planting the maize, herbicidal treatments were applied using a boom sprayer equipped with Tee Jet 110-015 nozzles applying the spray solution at a rate of 187 l/hectare. Untreated check plots were included as the basis for comparison of herbicidal efficacy.
(§5) Treatments included the compound of formula I number 16, the commercial grass herbicides metolachlor S (Dual II Magnum®), acetochlor (Harness®) and dimethenamid (Frontier®) alone and in combination with two broadleaf herbicides, atrazine and B-128. All grass herbicides (compound 16, metolachlor S, acetochlor and dimethenamid) were applied at a rate of 1000 g/ha. The broadleaf herbicides were applied at 1680 g/ha for atrazine and 150 g/ha for B-128.
(§6) Observations on percent weed control and phytotoxicity to maize were made at 35 days after treatment for field trial 1 and 21 days after application for field trial 2. All visual estimates were made in comparison to untreated check plots. Results reported are the mean control of broadleaf weeds, and percent control for Setaria viridis, the predominant grassy weed in this experiment.

For series [4], the system named is Amaranthus retroflexus, Abutilon theophrasti, Chenopodium album, Ipomoea hederacea, and Setaria viridis. The series is described as follows: Field trials, overall herbicidal performance in words.
Source text: as §4, §5
Observations on percent weed control and phytotoxicity to maize were made at 35 days after treatment for field trial 1 and 21 days after application for field trial 2. […]

Series [5] deals with broadleaf weeds. Put plainly: Field trials, mean control of broadleaf weeds. The note with it: grass herbicides 1000 g/ha, atrazine 1680 g/ha, B-128 150 g/ha.
Source text: as §4, §5, §6

The test system of series [6] is maize. Put plainly: Field trials, phytotoxicity to maize. The note with it: grass herbicides 1000 g/ha, atrazine 1680 g/ha, B-128 150 g/ha.
Source text: as §4, §5, §6

Series [7] concerns maize. Put plainly: Greenhouse pre-emergence test, phytotoxicity to maize.
Source text: as §1, with “PSI. […]” for “PSI.”
After treatment, pots were returned to a greenhouse where they were watered and held in good growth conditions for two weeks. At the end of two weeks, herbicidal efficacy was evaluated visually using a rating system from 0-100%, where 0=no inhibition of growth, and 100=complete death of all plants in the testing unit. […]

Where [8] appears, read: field trial 1, low organic matter, high sand content soil, 35 days after application.
Where [9] appears, read: field trial 2, moderate organic matter, high clay content soil, 21 days after application.

On to `CCc1cccc(CC)c1N(CC#N)C(=O)CCl` [Cpd 1], for which the Grass control in series [1] was 100%. Moreover, the broadleaf control in series [2] is 22%.
Regarding `C#CCN(C(=O)CCl)c1c(C)cccc1CC` [Cpd 15], the Grass control in series [1] came out at 100%. In series [2], the broadleaf control worked out at 32%.
Turning to `C#CCN(C(=O)CCl)c1c(CC)cccc1CC` [Cpd 16], the Grass control in series [1] stood at 100%. The S. viridis control in series [3] (setting [8]) was found to be 96%; in series [3] (setting [9]), 75%. The results for the broadleaf control in series [2], in series [5] (setting [8]) and in series [5] (setting [9]) were 53%, 33% and 24%, respectively. In addition, the “performance (in words)” value in series [4] (higher organic, high clay soil, compared with the three standards) was “relatively better than two of the three standards”. The “efficacy (in words)” value in series [4] (sandy, low organic matter soil, combined with atrazine or B-128) was “equal efficacy as other herbicides”. Besides, the values for the Phytotoxicity in series [6] (setting [8]) and in series [6] (setting [9]) were 0% and 2%, respectively.
Turning to `C#CCN(C(=O)CCl)c1c(C)cccc1C` [Cpd 23], in series [1], the Grass control was found to be 100%. The broadleaf control in series [2] stood at 33%. Moreover, in series [7] (in vivo), the “phytotoxicity to maize (in words)” value is listed as “moderately more phytotoxic”.
Take `CCc1cccc(C)c1N(C(=O)CCl)[C@@H](C)COC` [Metolachlor S, (S)-2-chloro-N-(2-ethyl-6-methylphenyl)-N-(2-methoxy-1-methylethyl)acetamide]: the Grass control in series [1] is 100%. Further, the S. viridis control amounted to 100% in series [3] (setting [8]) and 60% in series [3] (setting [9]). The broadleaf control in series [2] was 41%; in series [5] (setting [8]), 40%; in series [5] (setting [9]), 18%. The Phytotoxicity in series [7] (phytotoxicity to maize, greenhouse, visual rating 0-100% after two weeks, grass herbicides 1000 g/ha, atrazine 1680 g/ha, isoxaflutole 78 g/ha, B-128 125 g/ha) is 0%; in series [6] (setting [8]), 0%; in series [6] (setting [9]), 1%.
For `CCOCN(C(=O)CCl)c1c(C)cccc1CC` [acetochlor, 2-chloro-N-ethoxymethyl-6′-ethylacet-o-toluidide], in series [1], the Grass control was determined as 100%. Also, the figures for the S. viridis control in series [3] (setting [8]) and in series [3] (setting [9]) were 99% and 87%, respectively. Also, the broadleaf control in series [2] turned out to be 75%; in series [5] (setting [8]) it was 50%; in series [5] (setting [9]), 36%.
With `COCC(C)N(C(=O)CCl)c1c(C)csc1C` (centres unmarked) [dimethenamid, 2-chloro-N-[(1-methy-2-methoxyl)ethyl]-N-(2,4-dimethyl-3-thienyl)-acetamide], the Grass control in series [1] was 100%. Also, the S. viridis control stood at 100% in series [3] (setting [8]) and 86% in series [3] (setting [9]). The broadleaf control in series [2] is reported as 68%; in series [5] (setting [8]) it was 44%; in series [5] (setting [9]) it was 26%.
